Results: patent publication US20220089616A1, “CARBORANE-BASED HISTONE DEACETYLASE (HDAC) INHIBITORS” (The Regents of the University of California, priority 2018, published 2022)

System: primary mouse NPCs
Experiment: TUNEL assay, mouse NPCs
Format: cell-based
Conditions: 40 μM
Procedure: Primary neural progenitor cells (NPCs) were a gift from Dr. Harley Kornblum (University of California Los Angeles). The cells were collected from embryonic day 14 (E14) mouse brain according to procedures approved by the UCLA Chancellor's Committee for Animal Research. The following supplements were added to the Neurobasal media: 1:50 B27, 1:100 Pen-Strep, 2 mM 1-glutamine (all from GIBCO/BRL), 2 μg/ml heparin (Sigma), and 20 ng/ml FGF2 (PeproTech). Cells were incubated at 37° C. in the presence of 5% CO2. Additional FGF2 was added every third day, and cultures were passaged every 7 days. During each passage, spheres were enzymatically and mechanically dissociated with Accumax (Sigma).
Click-iT® Plus TUNEL Assay (Molecular Probes Life Technologies, Catalog #: C10617)
Primary mouse NPCs were passaged and counted as previously described. Cells without treatment were used as a negative control, DNaseI (Cat. no. 18068-015) was used to generate a positive control, and 10 μL of inhibitor solutions were used at varying concentrations. A 24-well plate was prepped with 12 mm circle glass coverslips in the wells. Coverslips were coated with poly-L-lysine followed by laminin prior to plating the cells. […]

TUNEL positive cells (FIG. 11A): perceived elevation
SMILES: CN(Cc1ccc(/C=C/C(=O)NO)cc1)CC12CC3CC(CC(C3)C1)C2 [Martinostat]
toxicity by average cell population count of confocal images (5 positions): higher toxicity
